According to ChEMBL document CHEMBL1201862, “PubChem BioAssay data set” (2004):
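Each compound was tested at five concentrations against cells in 96-well plates for 48 hours. At the GI50, growth is halved.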 Calls of active or inactive are those of the source. No stated cut-off is given here; in the data, active = GI50 up to about 1.1 µM and inactive = higher.

Experiments:
Assay in all cases: NCI-60 cell line screen, 48 h
CCRF-CEM = tested on: CCRF-CEM
SN12C = tested on: SN12C
EKVX = tested on: EKVX
TK-10 = tested on: TK-10
SW-620 = tested on: SW-620
UACC-257 = tested on: UACC-257
OVCAR-5 = tested on: OVCAR-5
786-0 = tested on: 786-0
U-251 = tested on: U-251
IGROV-1 = tested on: IGROV-1
SF-295 = tested on: SF-295
HCC 2998 = tested on: HCC 2998
UO-31 = tested on: UO-31
HOP-62 = tested on: HOP-62
SF-539 = tested on: SF-539
UACC-62 = tested on: UACC-62
HOP-92 = tested on: HOP-92
SK-OV-3 = tested on: SK-OV-3
SK-MEL-5 = tested on: SK-MEL-5

| SMILES | GI50 (CCRF-CEM) | GI50 (SN12C) | GI50 (EKVX) | GI50 (TK-10) | GI50 (SW-620) | GI50 (UACC-257) | GI50 (OVCAR-5) | GI50 (786-0) | GI50 (U-251) | GI50 (IGROV-1) | GI50 (SF-295) | GI50 (HCC 2998) | GI50 (UO-31) | GI50 (HOP-62) | GI50 (SF-539) | GI50 (UACC-62) | GI50 (HOP-92) | GI50 (SK-OV-3) | GI50 (SK-MEL-5) |
| --- | --- | --- | --- | --- | --- | --- | --- | --- | --- | --- | --- | --- | --- | --- | --- | --- | --- | --- | --- |
| O=C(O)CCSC(=O)Nc1ccccc1 | > 100 µM (inactive) | > 100 µM (inactive) | > 100 µM (inactive) | > 100 µM (inactive) | 92.9 µM (inactive) | > 100 µM (inactive) | > 100 µM (inactive) | > 100 µM (inactive) | > 100 µM (inactive) | 94.6 µM (inactive) | > 100 µM (inactive) | > 100 µM (inactive) | > 100 µM (inactive) | > 100 µM (inactive) | > 100 µM (inactive) | 64.4 µM (inactive) |  |  |  |
| CCc1cccc(CC)c1NC(=O)C(=O)Cc1nc2ccccc2o1 | > 100 µM (inactive) | > 100 µM (inactive) | > 100 µM (inactive) | > 100 µM (inactive) | > 100 µM (inactive) | > 100 µM (inactive) | > 100 µM (inactive) | > 100 µM (inactive) | > 100 µM (inactive) | > 100 µM (inactive) | > 100 µM (inactive) | > 100 µM (inactive) | > 100 µM (inactive) | > 100 µM (inactive) | > 100 µM (inactive) | > 100 µM (inactive) | > 100 µM (inactive) | > 100 µM (inactive) |  |
| Cc1ccc(-c2nc3ccccc3c(=O)n2NCC2(O)OCC(O)C(O)C2O)cc1 (stereo unspecified) | > 100 µM (inactive) | > 100 µM (inactive) | > 100 µM (inactive) |  | > 100 µM (inactive) | > 100 µM (inactive) | > 100 µM (inactive) | > 100 µM (inactive) | > 100 µM (inactive) |  | > 100 µM (inactive) |  | > 100 µM (inactive) |  | > 100 µM (inactive) | > 100 µM (inactive) |  | > 100 µM (inactive) | > 100 µM (inactive) |
| COC(=O)c1c(OC)cccc1C(=O)O | > 100 µM (inactive) | > 100 µM (inactive) | > 100 µM (inactive) | > 100 µM (inactive) | > 100 µM (inactive) | > 100 µM (inactive) | > 100 µM (inactive) | > 100 µM (inactive) | > 100 µM (inactive) | > 100 µM (inactive) | > 100 µM (inactive) | > 100 µM (inactive) | > 100 µM (inactive) | > 100 µM (inactive) | > 100 µM (inactive) | > 100 µM (inactive) |  | > 100 µM (inactive) | > 100 µM (inactive) |
| CC1CC(=O)Nc2ccc(Cl)cc2N1C(=O)CN1CCC(CCCCN(C)C)CC1 (stereo unspecified) | > 100 µM (inactive) | > 100 µM (inactive) |  | > 100 µM (inactive) | > 100 µM (inactive) | > 100 µM (inactive) | > 100 µM (inactive) | > 100 µM (inactive) | > 100 µM (inactive) | > 100 µM (inactive) | > 100 µM (inactive) | > 100 µM (inactive) | > 100 µM (inactive) | > 100 µM (inactive) |  | > 100 µM (inactive) | > 100 µM (inactive) | > 100 µM (inactive) | > 100 µM (inactive) |
| COc1ccc2c3ccc4c(c3n(C)c2c1)C(=O)c1ccccc1C4=O | > 100 µM (inactive) | > 100 µM (inactive) | > 100 µM (inactive) |  | 80.2 µM (inactive) | > 100 µM (inactive) |  | 13.4 µM (inactive) | 63.8 µM (inactive) | > 100 µM (inactive) | 78.2 µM (inactive) | > 100 µM (inactive) | > 100 µM (inactive) | > 100 µM (inactive) | 22.2 µM (inactive) | > 100 µM (inactive) | 80 µM (inactive) | 21.6 µM (inactive) | > 100 µM (inactive) |
| C[C@]12CC[C@H](O)CC1=CC[C@@H]1C2CC[C@]2(C)NC(=O)C(C#N)CC12 (stereo partly specified) | > 100 µM (inactive) |  | > 100 µM (inactive) | > 100 µM (inactive) | > 100 µM (inactive) | > 100 µM (inactive) | > 100 µM (inactive) | > 100 µM (inactive) | > 100 µM (inactive) | > 100 µM (inactive) | 12.8 µM (inactive) | > 100 µM (inactive) | > 100 µM (inactive) | > 100 µM (inactive) | > 100 µM (inactive) | 15.7 µM (inactive) |  | > 100 µM (inactive) | > 100 µM (inactive) |
| O=S1(=O)OCCOS(=O)(=O)C1I | 86.9 µM (inactive) | > 100 µM (inactive) | > 100 µM (inactive) | > 100 µM (inactive) | > 100 µM (inactive) | > 100 µM (inactive) |  | 71 µM (inactive) |  | > 100 µM (inactive) | 56.2 µM (inactive) | > 100 µM (inactive) | 48.5 µM (inactive) | > 100 µM (inactive) | > 100 µM (inactive) | 40.1 µM (inactive) | > 100 µM (inactive) | > 100 µM (inactive) | 66.8 µM (inactive) |
| CN(C)c1ccc(/C=C/C(=O)c2ccccc2)cc1Br | 20.5 µM (inactive) | 21.1 µM (inactive) | > 100 µM (inactive) | 26.1 µM (inactive) | 19.9 µM (inactive) | 22.3 µM (inactive) | 49.3 µM (inactive) | 17.2 µM (inactive) | 18.5 µM (inactive) | 20.2 µM (inactive) | 20 µM (inactive) | 19.2 µM (inactive) | 18.5 µM (inactive) | 48.5 µM (inactive) |  | 16.5 µM (inactive) |  | 33 µM (inactive) | 18.4 µM (inactive) |
| CCCNCc1nc2ccc(Br)cc2c(=O)n1CCC | 3.27 µM (inactive) | 13.6 µM (inactive) | 19.1 µM (inactive) |  | 13.7 µM (inactive) | 13.3 µM (inactive) |  | 15.8 µM (inactive) | 13.3 µM (inactive) | 15.6 µM (inactive) | 16.9 µM (inactive) |  | 16.2 µM (inactive) | 22 µM (inactive) | 15.8 µM (inactive) | 6.93 µM (inactive) |  | 18.7 µM (inactive) | 7.55 µM (inactive) |
| C[C@H]1NC(=O)C2CCCCN2C(=O)CN(C)C(=O)CNC(=O)C2CCCCN2C(=O)[C@@H](NC(=O)c2nc3ccccc3cc2O)[C@@H](C)NC(=O)C2CCCCN2C(=O)CN(C)C(=O)CNC(=O)[C@@H]2CCCCN2C(=O)C1NC(=O)c1nc2ccccc2cc1O (stereo partly specified) | 1.02 µM (active) | 0.313 µM (active) | 0.668 µM (active) | 0.525 µM (active) | 0.225 µM (active) | 0.185 µM (active) | 1.91 µM (inactive) | 0.203 µM (active) | 0.0153 µM (active) | 0.283 µM (active) | 0.0258 µM (active) | 0.204 µM (active) | 0.25 µM (active) | 0.251 µM (active) | 0.201 µM (active) | 0.0229 µM (active) |  | 0.482 µM (active) | 0.155 µM (active) |
| COc1cc2c(cc1O)[C@H](Cc1ccc(Oc3cc(C[C@H]4c5cc(OC)c(OC)cc5CCN4C)ccc3OC)cc1)NCC2 | 9.64 µM (inactive) | 14.8 µM (inactive) | > 10 µM (inactive) | > 10 µM (inactive) | 11.6 µM (inactive) | 15.8 µM (inactive) | 18 µM (inactive) | 12.4 µM (inactive) | 12 µM (inactive) | 15.2 µM (inactive) | 11.9 µM (inactive) | 6.62 µM (inactive) | 8.75 µM (inactive) | > 10 µM (inactive) | 10.5 µM (inactive) | 17.8 µM (inactive) | 5.16 µM (inactive) |  |  |
| CCOC(=O)/C(=C\NC(C)(C)C)c1nc2ccccc2[nH]1 | 17.7 µM (inactive) | 28.3 µM (inactive) | 12.2 µM (inactive) | 14 µM (inactive) | 25.3 µM (inactive) | 18.5 µM (inactive) | 21.5 µM (inactive) | 27.1 µM (inactive) |  | 22 µM (inactive) | 20.2 µM (inactive) |  | 0.466 µM (active) | 22.4 µM (inactive) | 16.8 µM (inactive) | 16.3 µM (inactive) | 25.2 µM (inactive) | 30.1 µM (inactive) | 12.9 µM (inactive) |
| CN1OC2OC(=O)OC2[C@H]1[C@H]1O[C@H](c2ccccc2)OC1(C)c1cc(OC(=O)c2ccccc2)ccc1OC(=O)c1ccccc1 (stereo partly specified) | > 50 µM (inactive) | > 50 µM (inactive) | > 50 µM (inactive) | > 50 µM (inactive) | > 50 µM (inactive) | > 50 µM (inactive) | > 50 µM (inactive) | > 50 µM (inactive) | > 50 µM (inactive) | > 50 µM (inactive) |  |  | > 50 µM (inactive) | > 50 µM (inactive) | > 50 µM (inactive) |  | > 50 µM (inactive) | > 50 µM (inactive) | > 50 µM (inactive) |
| COC1=CC(C)C2C[C@H]3O[C@H](O)C[C@H]4C(C)C(=O)C(O)C([C@@]2(C)C1=O)[C@@]34C (stereo partly specified) | > 100 µM (inactive) | > 100 µM (inactive) | > 100 µM (inactive) | > 100 µM (inactive) | > 100 µM (inactive) | > 100 µM (inactive) |  | > 100 µM (inactive) | > 10 µM (inactive) | > 100 µM (inactive) | > 100 µM (inactive) | > 100 µM (inactive) | > 100 µM (inactive) |  | > 100 µM (inactive) | > 100 µM (inactive) | > 100 µM (inactive) | > 100 µM (inactive) | > 100 µM (inactive) |
| COC(=O)C1CC(OC(C)=O)C=C2C(=O)CCC21 (stereo unspecified) | 16.8 µM (inactive) | 19.2 µM (inactive) |  | 29.4 µM (inactive) | 20.3 µM (inactive) | 16.8 µM (inactive) |  | 18.5 µM (inactive) | 28.3 µM (inactive) | 27.2 µM (inactive) |  | 34.2 µM (inactive) | 27.2 µM (inactive) | 25.4 µM (inactive) | 20.6 µM (inactive) | 19.3 µM (inactive) |  | 27.1 µM (inactive) | 20.5 µM (inactive) |
